Test results as given in patent US20060167276A1, “Clausenamide c5-hydroxyl derivatives and n-substituted derivatives, processes for their preparation, its composition and use” (priority 2002, published 2006).

Assays:
[1] = system: C17-2 mouse brain neural stem cells; experiment: Cell proliferation of mouse brain neural stem cells (MTT, OD 490 nm); assay type: cell-based; conditions: for Cell proliferation %: control group = 100%; for promotion effects on cell proliferation of mouse brain neural stem cells: at doses of 0.1 μM and 1 μM
Procedure: C17-2 mouse brain neural stem cells (C17-2 cells) were continuously cultured in 1640 medium with 10% horse serum and 10% fetal bovine serum at 5% CO2 and 37° C., dissociated to single cell suspension by 0.1% trypsin solution, centrifuged at 1,000 rpm×5 min and rinsed with medium. The cells were seeded in a 96-well plate, 1×10^3 cells per well, 3 well per group, continuously cultured. After 24 hours, the test compounds were added, doses of each of the C5-hydroxyl substituted clausenamides and N-substituted clausenamide derivatives were 0.1 μM, 1 μM and 10 μM respectively. The growth situation of the cells was observed under a microscope, once daily. At the 4th day, media in each well were pipetted, phosphate buffer solution containing MTT was added. 4 Hours later, the fluid was discarded, and a DMSO solution was added. The cells were incubated at 37° C. for 10 min under shaken. OD values on 490 nm of each well were detected. Set the growth rate of the control group as 100%, and the growth rates of each dose were given by comparison with the control group and t-tested.

rat hippocampus = experiment: LTP / synaptic transmission in rat hippocampus (population spike amplitude, dentate gyrus); assay type: in vivo; conditions: for Relative PS (PSA %): lateral ventricle, prior administration = 100; for effects on synaptic transmission: P<0.05 vs. control, n=5
From the text: Male adult SD Rats (5 per group) were anesthetized with 20% (w/v) urethane carbamate (1.0 g·kg^−1, ip) and fixed in a stereotaxic head holder. According to the reference of Pellegrino stereotaxic spectrum of rat, recording electrodes (stainless steel needle of 0.2 mm diameter were insulted except for 0.2 mm tip) were placed in the dentate gyrus granule cell layer. The stimulating electrodes (two stainless steel needles of 0.15 mm diameter coated with Teflon except for the 0.2 mm tip, and the distance between two needles was 0.5 mm) were planted between the fibre of perforant path (PP) in rat. Continuous pulse was provided by electronic stimulator, and delivered to PP through stimulus isolator and stimulating electrodes. Electrode depth was then adjusted until a typical excitatory postsynaptic potential (EPSP) was observed. Electric current was magnified by amplifier and collected by computer, then processed by DataWave software. The stimulus intensity was adjusted to produce population spike (PS) with a slope that was ≈50% of the maximum. Single-pulse test stimuli were at an interval of 30 sec during the experiment. Population spike amplitude (PSA) was recorded and the relatively percent of PSA was calculated according to the formula (PSA/basic value).

[2] = dose 10^−5 M, MTT at 4th day, OD 490 nm
[3] = dose 10^−6 M, MTT at 4th day, OD 490 nm
[4] = dose 10^−7 M, MTT at 4th day, OD 490 nm

Compound | Result (OD value) [1, 2] | Cell proliferation % ([1]; dose 10^−5 M) | Result (OD value) [1, 3] | Cell proliferation % ([1]; dose 10^−6 M) | Result (OD value) [1, 4] | Cell proliferation % ([1]; dose 10^−7 M) | Relative PS (PSA %) (rat hippocampus; 15 min after administration) | Relative PS (PSA %) (rat hippocampus; 30 min after administration) | Relative PS (PSA %) (rat hippocampus; 45 min after administration) | Relative PS (PSA %) (rat hippocampus; 60 min after administration) | effects on synaptic transmission (rat hippocampus) | effects on cell proliferation of mouse brain neural stem cells (conclusion) [1] | promotion effects on cell proliferation of mouse brain neural stem cells [1] | Result (OD value) ([1]; positive control, dose 5 mg/L) | Cell proliferation % ([1]; positive control, dose 5 mg/L)
CN1C(=O)[C@@H](O)[C@H](c2ccccc2)[C@]1(O)[C@H](O)c1ccccc1 [(+)II1, (+)-(3S,4S,5S,6R)-5-hydroxy-clausenamide] | 0.093 ± 0.007 | 67.88% | 0.264 ± 0.036 | 192.70% | 0.250 ± 0.016 | 182.48% | 144.86 ± 49.53% | 168.02 ± 49.16% | 194.32 ± 56.65 % | 233.24 ± 55.62 % | significantly upstanding effects |  |  |  | 
CN1C(=O)[C@H](O)[C@@H](c2ccccc2)[C@]1(O)[C@H](O)c1ccccc1 [(−)II2, (−)-(3R,4R,5S,6R)-5-hydroxy-clausenamide] | 0.156 ± 0.095 | 113.87% | 0.163 ± 0.038 | 118.98% | 0.233 ± 0.033 | 170.07% | 110.55 ± 7.27% | 103.09 ± 10.12% | 94.49 ± 10.53% | 88.40 ± 14.42% |  |  |  |  | 
CC(=O)OCN1C(=O)C(O)C(c2ccccc2)C1C(O)c1ccccc1 (single isomer, unassigned; (-)) [(−)III3, N-acetoxymethylene-norclausenamide] | 0.061 ± 0.007 | 44.53% | 0.147 ± 0.021 | 107.30% | 0.217 ± 0.024 | 158.39% | 90.33 ± 16.11% | 100.15 ± 7.48% | 118.33 ± 25.07% | 141.37 ± 30.83% |  |  |  |  | 
CN1C(=O)[C@H](O)[C@@H](c2ccccc2)[C@@]1(O)[C@@H](O)c1ccccc1 [(−)II1, (−)-(3R,4R,5R,6S)-5-hydroxy-clausenamide] | 0.126 ± 0.016 | 91.97% | 0.236 ± 0.049 | 172.26% | 0.256 ± 0.020 | 186.86% |  |  |  |  |  | significant effects | significant promotion effects |  | 
Cc1cccc(C)c1NC(=O)CN1C(=O)C(O)C(c2ccccc2)C1C(O)c1ccccc1 (racemic) [(±)III5] | 0.171 ± 0.035 | 124.82% | 0.227 ± 0.011 | 165.69% | 0.304 ± 0.051 | 221.90% | 87.51 ± 19.57% | 97.43 ± 32.15% | 111.47 ± 46.02% | 137.15 ± 57.17% |  | significant effects | significant promotion effects |  | 
CC(=O)O[C@@H]1C(=O)N(C)[C@@](O)([C@H](O)c2ccccc2)[C@H]1c1ccccc1 [(−)-3-O-AC-II1, (−)-(3S,4S,5S,6R)-3-O-acetyl-5-hydroxy-clausenamide] | 0.063 ± 0.014 | 45.99% | 0.072 ± 0.006 | 52.55% | 0.179 ± 0.004 | 130.66% | 78.91 ± 13.90% | 83.73 ± 13.59% | 94.60 ± 8.87% | 102.66 ± 2.88% |  |  |  |  | 
CN1C(=O)C(O)C(c2ccccc2)C1=Cc1ccccc1 (single isomer, unassigned) [(−)Δ^5,6-I, (−)-Δ^5,6-clausenamide] | 0.076 ± 0.016 | 55.47% | 0.165 ± 0.011 | 120.44% | 0.246 ± 0.005 | 179.56% | 123.37 ± 14.80% | 138.79 ± 10.94 % | 158.89 ± 23.04 % | 181.50 ± 35.88 % | significantly upstanding effects |  |  |  | 
CN1C(=O)[C@@H](O)[C@H](c2ccccc2)[C@@]1(O)[C@@H](O)c1ccccc1 [(+)II2, (+)-(3S,4S,5R,6S)-5-hydroxy-clausenamide] | 0.076 ± 0.008 | 55.47% | 0.220 ± 0.023 | 160.58% | 0.175 ± 0.059 | 127.74% | 81.48 ± 6.13% | 77.33 ± 8.93% | 82.56 ± 1.87% | 99.92 ± 6.26% |  |  |  |  | 
O=C(O)CN1C(=O)C(O)C(c2ccccc2)C1C(O)c1ccccc1 (racemic) [(±)III2] | 0.100 ± 0.018 | 72.99% | 0.175 ± 0.006 | 127.74% | 0.218 ± 0.012 | 159.12% | 99.41 ± 9.27% | 117.34 ± 14.74% | 140.2 ± 10.96 % | 153.36 ± 13.23 % |  |  |  |  | 
CC(=O)OCN1C(=O)C(O)C(c2ccccc2)C1C(O)c1ccccc1 (racemic) [(±)III3, N-acetoxymethylene-norclausenamide] |  |  |  |  |  |  |  |  |  |  | significantly upstanding effects |  |  |  | 
fibroblast growth factor [FGF, reference compound] |  |  |  |  |  |  |  |  |  |  |  |  |  | 0.340 ± 0.035 | 248.17%
